Measured values: US20260098046A1, “RIFABUTIN ANALOGS FOR THE TREATMENT OF DISEASE” (BIOVERSYS AG, priority 2022, published 2026)
Converted amounts (≈) assume the structure as drawn. Like-named read-outs stand apart in the source and are kept apart here.

Experiments:
Assay type in all cases: cell-based
[1] = test system: S. aureus (UAMS-1625 strain); test: MIC by broth microdilution (CLSI) against S. aureus; settings: Staphylococcus aureus, 20 h, read-out: In vitro activity (MIC) S. aureus
Experimental: (§1) MIC values were determined by broth microdilution method according to the CLSI guideline. Unless otherwise mentioned, MIC against A. baumannii was performed in RPMI medium supplemented with 10% FCS. MIC against M. abscessus was performed in Middlebrook 7H9 broth supplemented with Middlebrook ADC growth supplement (10%). All other MIC were performed in standard cation adjusted Mueller Hinton broth, supplemented with Middlebrook ADC growth supplement (5%) for the slow growing mycobacteria (M. xenopi, M. kansasii and M. avium).
(§2) The following procedure applies to all species tested, except for M. xenopi. From a fresh culture plate (from overnight to several days depending on the bacteria), cells were resuspended in 0.9% (w/v) saline solution and bacterial inoculum was prepared in the respective testing medium with 5×10^5 CFU/mL. For M. xenopi, the inoculum was prepared from a fresh liquid culture (7H9+ADC). The appropriate volumes of a 10 mg/mL compound solution were directly dispensed in the 96-well assay plate using a digital dispenser to create two-fold dilution series from 32 to 0.002 μg/mL final concentration for A. baumannii and S. aureus; from 16 to 0.016 μg/mL for M. abscessus and M. avium; and from 1 to 6×10^−5 μg/mL for M. kansasii and M. xenopi. 100 μL of bacterial suspension was finally added to the compounds. Plates were covered and incubated without shaking at 35° C. for 20 hours for A. baumanii and S. aureus; at 30° C. for 4 days for M. abscessus; and at 37° C. for 7 days (at least) for M. kansasii (covered with aluminum foil to avoid light exposure), M. avium and M. xenopi. Every experiment contained an antibiotic as quality control. MIC was determined visually as the lowest concentration of a compound that prevents visible growth of the bacteria.
(§3) The in vitro activity of compounds described herein was determined against S. aureus (UAMS-1625 strain), A. baumannii (HUMC1 strain), M. abscessus (ATCC 19977), M. kansasii (ATCC12478), M. avium (ATCC25291), and M. xenopi (ATCC19250).

[2] = test system: M. avium (ATCC25291); test: MIC by broth microdilution (CLSI) against M. avium; settings: Mycobacterium avium, 168 h, cation adjusted Mueller Hinton broth + ADC (5%), 37° C. for 7 days (at least), read-out: In vitro activity (MIC) M. avium
Experimental: as §1, §2, §3

[3] = test system: M. kansasii (ATCC12478); test: MIC by broth microdilution (CLSI) against M. kansasii; settings: Mycobacterium kansasii, 168 h, cation adjusted Mueller Hinton broth + ADC (5%), 37° C. for 7 days (at least), read-out: In vitro activity (MIC) M. kansasii
Experimental: as §1, §2, §3

[4] = test system: A. baumannii (HUMC1 strain); test: MIC by broth microdilution (CLSI) against A. baumannii; settings: Acinetobacter baumannii, RPMI medium supplemented with 10% FCS, 35° C. for 20 hours, read-out: In vitro activity (MIC) A. baumannii
Experimental: as §1, §2, §3

[5] = test system: M. abscessus (ATCC 19977); test: MIC by broth microdilution (CLSI) against M. abscessus; settings: Mycobacteroides abscessus
Experimental: as §1, §2, §3

[6] = test system: M. xenopi (ATCC19250); test: MIC by broth microdilution (CLSI) against M. xenopi; settings: Mycobacterium xenopi, 168 h, cation adjusted Mueller Hinton broth + ADC (5%), 37° C. for 7 days (at least), read-out: In vitro activity (MIC) M. xenopi
Experimental: as §1, §2, §3

[7] = ATCC19977, 96 h, ATCC 19977, Middlebrook 7H9 broth + ADC (10%), 30° C. for 4 days, read-out: In vitro activity (MIC) M. abscessus

Row | SMILES | MIC [1] [µg/mL] | MIC [2] [µg/mL] | MIC [3] [µg/mL] | MIC [4] [µg/mL] | MIC [5, 7] [µg/mL] | MIC [6] [µg/mL] | MIC ([5]; ATCC19977, tested M. abscessus strains, read-out: MIC value on M. abscessus) [µg/mL]
1 | CO[C@H]1/C=C/O[C@@]2(C)Oc3c(C)c(O)c4c(c3C2=O)C2=NC3(CCN(CC(C)C)CC3)NC2=C(NC(=O)/C(C)=C\C=C\[C@H](C)[C@H](O)[C@@H](C)[C@@H](O)[C@@H](C)[C@H](OC(=O)Cn2cc(CCc3ccccc3)nn2)[C@@H]1C)C4=O [Compound 9] | 0.5 (≈ 0.491 µM) | 0.06 | 0.002 | 0.03 (≈ 0.0295 µM) | 0.25 | 0.03 | 
2 | CO[C@H]1/C=C/O[C@@]2(C)Oc3c(C)c(O)c4c(c3C2=O)C2=NC3(CCN(CC(C)C)CC3)NC2=C(NC(=O)/C(C)=C\C=C\[C@H](C)[C@H](O)[C@@H](C)[C@@H](O)[C@@H](C)[C@H](OC(=O)Cn2cc(CN(C)Cc3ccccc3)nn2)[C@@H]1C)C4=O [Compound 12] | 0.125 (≈ 0.119 µM) | 0.03 | 0.004 | 0.008 (≈ 0.00764 µM) | 0.25 | 0.03 | 
3 | CO[C@H]1/C=C/O[C@@]2(C)Oc3c(C)c(O)c4c(c3C2=O)C2=NC3(CCN(CC(C)C)CC3)NC2=C(NC(=O)/C(C)=C\C=C\[C@H](C)[C@H](O)[C@@H](C)[C@@H](O)[C@@H](C)[C@H](OC(=O)Cn2cc(C3CCCCC3)nn2)[C@@H]1C)C4=O [Compound 26] | 0.125 (≈ 0.125 µM) | 0.03 | 0.002 | 0.016 (≈ 0.0161 µM) | 0.25 | 0.03 | 
4 | CO[C@H]1/C=C/O[C@@]2(C)Oc3c(C)c(O)c4c(c3C2=O)C2=NC3(CCN(CC(C)C)CC3)NC2=C(NC(=O)/C(C)=C\C=C\[C@H](C)[C@H](O)[C@@H](C)[C@@H](O)[C@@H](C)[C@H](OC(C)=O)[C@@H]1C)C4=O [Rifabutin, rifabutin] | 0.016 (≈ 0.0189 µM) | 0.125 | 0.001 | ≤ 0.002 | 8 | 0.03 | 8 (≈ 9.44 µM)
